Laboratory results: US8729082B2, “Substituted imidazoquinoxalines” (Bayer Intellectual Property GmbH, priority 2009, dated 2014)

Target: T1, human kinase Mps-1 (Homo sapiens, UniProt P33981)
T1 construct: N-terminally GST-tagged human full length recombinant Mps-1 kinase; purchased Invitrogen, Karslruhe, Germany PV4071
T1 sequence (P33981 1-857): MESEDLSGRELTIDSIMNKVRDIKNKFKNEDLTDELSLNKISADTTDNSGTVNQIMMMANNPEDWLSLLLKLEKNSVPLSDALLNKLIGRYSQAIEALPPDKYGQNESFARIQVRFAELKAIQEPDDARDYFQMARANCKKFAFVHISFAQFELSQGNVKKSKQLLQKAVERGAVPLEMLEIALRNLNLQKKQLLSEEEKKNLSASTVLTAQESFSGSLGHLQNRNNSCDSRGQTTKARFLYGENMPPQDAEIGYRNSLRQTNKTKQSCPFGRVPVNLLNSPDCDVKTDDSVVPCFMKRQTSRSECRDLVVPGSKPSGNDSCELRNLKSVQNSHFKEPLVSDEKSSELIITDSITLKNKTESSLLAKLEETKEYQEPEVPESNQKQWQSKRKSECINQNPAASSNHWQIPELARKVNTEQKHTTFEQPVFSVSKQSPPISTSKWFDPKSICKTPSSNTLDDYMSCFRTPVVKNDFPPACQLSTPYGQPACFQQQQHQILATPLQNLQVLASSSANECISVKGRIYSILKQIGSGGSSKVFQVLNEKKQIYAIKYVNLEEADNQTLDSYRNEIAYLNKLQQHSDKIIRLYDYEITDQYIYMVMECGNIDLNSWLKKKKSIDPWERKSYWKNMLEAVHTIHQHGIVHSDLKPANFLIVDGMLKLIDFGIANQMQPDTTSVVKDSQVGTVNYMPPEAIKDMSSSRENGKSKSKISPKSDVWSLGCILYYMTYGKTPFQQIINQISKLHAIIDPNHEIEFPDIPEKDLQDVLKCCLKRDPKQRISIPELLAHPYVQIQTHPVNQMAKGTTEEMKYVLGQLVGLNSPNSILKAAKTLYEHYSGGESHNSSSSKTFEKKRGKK
Assay: Mps-1 kinase assay (HTRF)
Format: biochemical
Conditions: lowATP; mean; read-out: Mps1 lowATP mean IC50
Protocol: The human kinase Mps-1 phosphorylates a biotinylated substrate peptide. Detection of the phosphorylated product is achieved by homogenous time-resolved fluorescence resonance energy transfer (HTRF) from Europium-labelled anti-phospho-Serine/Threonine antibody as donor to streptavidin labelled with cross-linked allophycocyanin (SA-XLent) as acceptor. Compounds are tested for their inhibition of the kinase activity.
N-terminally GST-tagged human full length recombinant Mps-1 kinase (purchased from Invitrogen, Karslruhe, Germany, cat. no PV4071) was used. As substrate for the kinase reaction a biotinylated peptide of the amino-acid sequence PWDPDDADITEILG (C-terminus in amide form, purchased from Biosynthan GmbH, Berlin) was used.
For the assay 50 nl of a 100-fold concentrated solution of the test compound in DMSO was pipetted into a black low volume 384 well microtiter plate (Greiner Bio-One, Frickenhausen, Germany), 2 μl of a solution of Mps-1 in assay buffer [0.1 mM sodium-ortho-vanadate, 10 mM MgCl2, 2 mM DTT, 25 mM Hepes pH 7.7, 0.05% BSA, 0.001% Pluronic F-127] were added and the mixture was incubated for 15 min at 22° C. to allow pre-binding of the test compounds to Mps-1 before the start of the kinase reaction. Then the kinase reaction was started by the addition of 3 μl of a solution of 16.7 μM ATP and 1.67 μM peptide in assay buffer and the resulting mixture was incubated for a reaction time of 60 min at 22° C. The concentration of Mps-1 in the assay was adjusted to the activity of the enzyme lot and was chosen appropriate to have the assay in the linear range, typical enzyme concentrations were in the range of about 1 nM (final conc. in the 5 μl assay volume). The reaction was stopped by the addition of 3 μl of a solution of HTRF detection reagents (100 mM Hepes pH 7.4, 0.1% BSA, 40 mM EDTA, 140 nM Streptavidin-XLent [#61GSTXLB, Fa. Cis Biointernational, Marcoule, France], 1.5 nM anti-phospho(Ser/Thr)-Europium-antibody [#AD0180, PerkinElmer LAS, Rodgau-Jügesheim, Germany].
The resulting mixture was incubated 1 h at 22° C. to allow the binding of the phosphorylated peptide to the anti-phospho(Ser/Thr)-Europium-antibody. Subsequently the amount of phosphorylated substrate was evaluated by measurement of the resonance energy transfer from the Europium-labelled anti-phospho(Ser/Thr) antibody to the Streptavidin-XLent. Therefore, the fluorescence emissions at 620 nm and 665 nm after excitation at 350 nm was measured in a HTRF reader, e.g. a Rubystar (BMG Labtechnologies, Offenburg, Germany) or a Viewlux (PerkinElmer LAS, Rodgau-Jügesheim, Germany). The ratio of the emissions at 665 nm and at […] was taken as the measure for the amount of phosphorylated substrate. The data were normalised (enzyme reaction without inhibitor=0% inhibition, all other assay components but no enzyme=100% inhibition).

Point of comparison: `CCCCCNc1nc2ccccc2n2c(-c3ccc(C(=O)NC4CC4)cc3)cnc12` [Example 2-10, N-cyclopropyl-4-[4-(pentylamino)imidazo[1,2-a]quinoxalin-1-yl]benzamide], IC50 92.4 nM. Against it:
- O=C(NC1CC1)c1ccc(-c2cnc3c(NCc4cccc(Cl)c4)nc4ccccc4n23)cc1 [Example 2-7, 4-{4-[(3-chlorobenzyl)amino]imidazo[1,2-a]quinoxalin-1-yl}-N-cyclopropylbenzamide] — 2.4-fold higher, 222 nM
- O=C(NC1CC1)c1ccc(-c2cnc3c(NCCc4ccccc4)nc4ccccc4n23)cc1 [Example 2-8, N-cyclopropyl-4-{4-[(2-phenylethyl)amino]imidazo[1,2-a]quinoxalin-1-yl}benzamide] — 1.8-fold higher, 169 nM
- O=C(NC1CC1)c1ccc(-c2cnc3c(Nc4ccccc4)nc4ccccc4n23)cc1 [Example 2-9, N-cyclopropyl-4-[4-(phenylamino)imidazo[1,2-a]quinoxalin-1-yl]benzamide] — 5.9-fold higher, 545 nM
- O=C(NC1CC1)c1ccc(-c2cnc3c(NCCCN4CCCC4=O)nc4ccccc4n23)cc1 [Example 2-11, N-cyclopropyl-4-(4-{[3-(2-oxopyrrolidin-1-yl)propyl]amino}imidazo[1,2-a]quinoxalin-1-yl)benzamide] — 3.2-fold higher, 296 nM
- COCCNc1nc2ccccc2n2c(-c3ccc(C(=O)NC4CC4)cc3)cnc12 [Example 2-12, N-cyclopropyl-4-{4-[(2-methoxyethyl)amino]imidazo[1,2-a]quinoxalin-1-yl}benzamide] — 1.9-fold higher, 180 nM
- COc1ccccc1CNc1nc2ccccc2n2c(-c3ccc(C(=O)NC4CC4)cc3)cnc12 [Example 2-13, N-cyclopropyl-4-{4-[(2-methoxybenzyl)amino]imidazo[1,2-a]quinoxalin-1-yl}benzamide] — 3.6-fold higher, 334 nM
- O=C(NC1CC1)c1ccc(-c2cnc3c(NCc4ccccc4F)nc4ccccc4n23)cc1 [Example 2-14, N-cyclopropyl-4-{4-[(2-fluorobenzyl)amino]imidazo[1,2-a]quinoxalin-1-yl}benzamide] — within 1.5-fold, 72.1 nM
- O=C(NC1CC1)c1ccc(-c2cnc3c(NCc4ccc(F)cc4)nc4ccccc4n23)cc1 [Example 2-15, N-cyclopropyl-4-{4-[(4-fluorobenzyl)amino]imidazo[1,2-a]quinoxalin-1-yl}benzamide] — 1.6-fold lower, 56.3 nM
- O=C(NC1CC1)c1ccc(-c2cnc3c(NCc4ccccc4)nc4ccccc4n23)cc1 [Example 2-16, 4-[4-(benzylamino)imidazo[1,2-a]quinoxalin-1-yl]-N-cyclopropylbenzamide] — within 1.5-fold, 67.5 nM
- COc1ccc(CCNc2nc3ccccc3n3c(-c4ccc(C(=O)NC5CC5)cc4)cnc23)cc1 [Example 2-17, N-cyclopropyl-4-(4-{[2-(4-methoxyphenyl)ethyl]amino}imidazo[1,2-a]quinoxalin-1-yl)benzamide] — 6.1-fold higher, 565 nM
- O=C(NC1CC1)c1ccc(-c2cnc3c(NCc4cccs4)nc4ccccc4n23)cc1 [Example 2-18, N-cyclopropyl-4-{4-[(thiophen-2-ylmethyl)amino]imidazo[1,2-a]quinoxalin-1-yl}benzamide] — 2-fold lower, 46.6 nM
- CCNc1nc2ccccc2n2c(-c3ccc(C(=O)NC4CC4)cc3)cnc12 [Example 2-19, N-cyclopropyl-4-[4-(ethylamino)imidazo[1,2-a]quinoxalin-1-yl]benzamide] — within 1.5-fold, 94 nM
- CN(C)CCCNc1nc2ccccc2n2c(-c3ccc(C(=O)NC4CC4)cc3)cnc12 [Example 2-20, N-cyclopropyl-4-(4-{[3-(dimethylamino)propyl]amino}imidazo[1,2-a]quinoxalin-1-yl)benzamide] — 8.1-fold higher, 744 nM
- NS(=O)(=O)c1ccc(CCNc2nc3ccccc3n3c(-c4ccc(C(=O)NC5CC5)cc4)cnc23)cc1 [Example 2-21, N-cyclopropyl-4-(4-{[2-(4-sulfamoylphenyl)ethyl]amino}imidazo[1,2-a]quinoxalin-1-yl)benzamide] — 1.9-fold lower, 48.1 nM
- O=C(NC1CC1)c1ccc(-c2cnc3c(NCCc4cccc(F)c4)nc4ccccc4n23)cc1 [Example 2-22, N-cyclopropyl-4-(4-{[2-(3-fluorophenyl)ethyl]amino}imidazo[1,2-a]quinoxalin-1-yl)benzamide] — 3.4-fold higher, 312 nM
